Measured values as given in patent publication US9790252B2, “2-fluorinated riboses and arabinoses and methods of use and synthesis” (CORNELL UNIVERSITY, priority 2009, dated 2017).

How the values were obtained:
Neuro2A cells = experiment: Toxicity to Neuro2A cells (MTT); assay type: cell-based; conditions: for 100 μM absorbance / 100 μM relative viability / 500 μM absorbance / 500 μM relative viability: 12 hours; for 100 μM absorbance / 500 μM absorbance: 570 nm; for EC50: 2′-deoxy-2′-fluoro-nucleosides and nucleotides
Procedure: 6. Neuro2A cells were seeded in 96-well plate at a density of 25,000 cells/well the day before the experiment starts;
7. After the cells reach 50˜60% confluency, media was taken out, and 100 μL of fresh media was added to each well;
8. […]
9. After 12 hours' incubation at 37° C., the media was taken out, 100 μL of fresh media was added to each well along with 20 μL of 5 mg/mL of MTT solution (in PBS);
10. After 1.5 hours' incubation at 37° C., media was taken out and 100 μL of DMSO was added to each well, the plate was mixed on shaker for 5 mins;
(§1) Absorbance was measured at 570 nm.
Assay for Determining Toxicity to HEK293 and Neuro2A Cells • 1. HEK293 and Neuro2A cells were seeded in 96-well plate at a density of 25,000 cells/well the day before the experiment starts; • 2. After the cells reach 50˜60% confluency, media was taken out, and 100 μL of fresh media was added to each well; • 3. […] After 12 hours' incubation at 37° C., the media was taken out, 100 μL of fresh media was added to each well along with 20 μL of 5 mg/mL of MTT solution (in PBS); • 5. After 2 hours' incubation at 37° C., media was taken out and 100 μL of DMSO was added to each well, the plate was mixed on shaker for 5 mins; • 6. Absorbance was measured at 570 nm.

HEK293 cells = experiment: Toxicity to HEK293 cells (MTT); assay type: cell-based; conditions: for 100 μM absorbance / 100 μM relative viability: HEK293, 100 μM; for 100 μM absorbance / 100 μM relative viability / 500 μM absorbance / 500 μM relative viability: 12 hours; for 100 μM absorbance / 500 μM absorbance: 570 nm; for 100 μM relative viability / 500 μM relative viability: control = 1; for 500 μM absorbance / 500 μM relative viability: HEK293, 500 μM; for EC50: HEK293, 2′-deoxy-2′-fluoro-nucleosides and nucleotides
Procedure: 1. HEK293 cells were seeded in 96-well plate at a density of 25,000 cells/well the day before the experiment starts;
2. After the cells reach 50˜60% confluency, media was taken out, and 100 μL of fresh media was added to each well;
3. F-derivatives were plated at 100 and 500 μM (in duplicates) concentrations;
4. After 12 hours' incubation at 37° C., the media was taken out, 100 μL of fresh media was added to each well along with 20 μL of 5 mg/mL of MTT solution (in PBS);
5. After 1.5 hours' incubation at 37° C., media was taken out and 100 μL of DMSO was added to each well, the plate was mixed on shaker for 5 mins;
as §1
Assay for Determining Toxicity to HEK293 and Neuro2A Cells • 1. HEK293 and Neuro2A cells were seeded in 96-well plate at a density of 25,000 cells/well the day before the experiment starts; • 2. After the cells reach 50˜60% confluency, media was taken out, and 100 μL of fresh media was added to each well; • 3. Cl-derivatives were plated at 100 and 500 μM (in duplicates) concentrations; • 4. After 12 hours' incubation at 37° C., the media was taken out, 100 μL of fresh media was added to each well along with 20 μL of 5 mg/mL of MTT solution (in PBS); • 5. After 2 hours' incubation at 37° C., media was taken out and 100 μL of DMSO was added to each well, the plate was mixed on shaker for 5 mins; • 6. Absorbance was measured at 570 nm.

[1] = MTT 2 hours, chloro-nucleosides
[2] = control = 1, chloro-nucleosides

Molecule: 2′-deoxy-2′-fluoro-ribo-NAD^+ [ribo-F-NAD]
- 100 μM absorbance (Neuro2A cells; MTT 1.5 hours): 1.6122
- 100 μM relative viability (Neuro2A cells; control = 1): 0.663
- 500 μM absorbance (Neuro2A cells; MTT 1.5 hours): 0.6455
- 500 μM relative viability (Neuro2A cells; control = 1): 0.265
- EC50 (Neuro2A cells): 0.35 mM
- 100 μM absorbance (HEK293 cells; MTT 1.5 hours): 1.4985
- 100 μM relative viability (HEK293 cells): 0.6592
- 500 μM absorbance (HEK293 cells; MTT 1.5 hours): 1.384
- 500 μM relative viability (HEK293 cells): 0.6087
- EC50 (HEK293 cells): 1.02 mM

Molecule: NC(=O)c1ccc[n+]([C@@H]2O[C@H](COP(=O)([O-])OP(=O)(O)OC[C@H]3O[C@@H](n4cnc5c(N)ncnc54)[C@H](O)[C@@H]3O)[C@@H](O)[C@@H]2F)c1 [ara-F-NAD, 2′-deoxy-2′-fluoro-arabino-NAD^+]
- 100 μM absorbance (Neuro2A cells; MTT 1.5 hours): 2.2482
- 100 μM relative viability (Neuro2A cells; control = 1): 0.924
- 500 μM absorbance (Neuro2A cells; MTT 1.5 hours): 1.7012
- 500 μM relative viability (Neuro2A cells; control = 1): 0.699
- EC50 (Neuro2A cells): 1.5 mM
- 100 μM absorbance (HEK293 cells; MTT 1.5 hours): 1.523
- 100 μM relative viability (HEK293 cells): 0.6699
- 500 μM absorbance (HEK293 cells; MTT 1.5 hours): 1.302
- 500 μM relative viability (HEK293 cells): 0.5729
- EC50 (HEK293 cells): 1 mM

Molecule: NC(=O)c1ccc[n+]([C@H]2O[C@H](CO)C(O)C2Cl)c1 (stereo partly drawn) [α-ara-Cl-NR, 1-(2′-deoxy-2′-chloro-arabinofuranosyl)-nicotinamide]
- 100 μM absorbance (Neuro2A cells; [1]): 2.575
- 100 μM relative viability (Neuro2A cells; [2]): 1.089
- 500 μM absorbance (Neuro2A cells; [1]): 2.34
- 500 μM relative viability (Neuro2A cells; [2]): 0.9894
- toxicity to Neuro2A (in words) (Neuro2A cells; at 500 μM): not toxic at 500 μM
- 100 μM absorbance (HEK293 cells; [1]): 2.09
- 100 μM relative viability (HEK293 cells; chloro-nucleosides): 0.8601
- 500 μM absorbance (HEK293 cells; [1]): 1.77
- 500 μM relative viability (HEK293 cells; chloro-nucleosides): 0.7284
- kills % of HEK293 cells (HEK293 cells; HEK293, at 500 μM): kills 30% at 500 μM
